Patent US5194379A, “Microbial transformation process for the preparation of hydroxylanol imidazo (4,5-b) pyridines useful as angiotensin II receptor antagonists” (Merck & Co., Inc., priority 1991, dated 1993)

Molecular target: T1, Angiotensin II (A II) receptor (Oryctolagus cuniculus, UniProt P34976)
T1 sequence (P34976 1-359): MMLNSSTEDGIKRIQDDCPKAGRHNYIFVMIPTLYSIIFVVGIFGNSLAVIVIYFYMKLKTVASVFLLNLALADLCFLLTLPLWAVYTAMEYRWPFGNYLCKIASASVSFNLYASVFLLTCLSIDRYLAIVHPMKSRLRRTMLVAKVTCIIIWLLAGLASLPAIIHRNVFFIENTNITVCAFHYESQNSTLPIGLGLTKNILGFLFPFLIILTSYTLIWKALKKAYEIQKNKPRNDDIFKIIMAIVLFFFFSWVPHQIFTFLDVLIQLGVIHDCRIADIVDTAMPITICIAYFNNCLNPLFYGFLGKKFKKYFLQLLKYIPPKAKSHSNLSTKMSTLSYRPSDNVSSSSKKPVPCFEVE
Assay: Receptor Binding Assay Using Rabbit Aortae Membrane Preparation (displacement of 125I-Sar1Ile8-angiotensin II)
Description: This assay is also referred to herein as the "IC50 " assay.
Receptor Binding Assay Using Rabbit Aortae Membrane Preparation
Three frozen rabbit aortae (obtained from Pel-Freeze Biologicals) were suspended in 5 mM Tris-0.25M Sucrose, pH 7.4 buffer (50 ml) homogenized, and then centifuged. The mixture was filtered through a cheesecloth and the supernatant was centrifuged for 30 minutes at 20,000 rpm at 4° C. The pellet thus obtained was resuspended in 30 ml of 50 mM Tris-5 mM MgCl2 buffer containing 0.2% Bovine Serum Albumin and 0.2 mg/ml Bacitration and the suspension was used for 100 assay tubes. Samples tested for screening were done in duplicate. To the membrane preparation (0.25 ml) there was added ^125 I-Sar^1 Ile^8 -angiotensin II [obtained from New England Nuclear] (10 ul; 20,000 cpm) with or without the test sample and the mixture was incubated at 37° C. for 90 minutes. The mixture was then diluted with ice-cold 50 mM Tris---0.9% NaCl, pH 7.4 (4 ml) and filtered through a glass fiber filter (GF/B Whatman 2.4" diameter). The filter was soaked in scintillation cocktail (10 ml) and counted for radioactivity using Packard 2260 Tricarb liquid scintillation counter. […]

A II antagonist activity by the IC50 assay (in words) | SMILES
exhibit A II antagonist activity | CCc1nc2c(C)cc(CO)nc2n1Cc1ccc(-c2ccccc2-c2nnn[nH]2)cc1 [compound (I)]
exhibit A II antagonist activity | CCc1nc2c(CO)cc(C)nc2n1Cc1ccc(-c2ccccc2-c2nnn[nH]2)cc1 [compound (II)]
